Test results: US8053583B2, “Anti-cancer compound and manufacturing method thereof” (National Defense Medical Center, priority 2008, dated 2011)

Key:
[1] = tested on: GBM 8901 (human brain glioblastoma) cells; experiment: MTT colorimetric assay, GBM 8901 cells; details: 46 hours with drug, then 2 hours MTT, ratio to control group without drug
Text: (§1) MTT (tetrazole) assay used to determine tumor viability is based on measurement of the activity of dehydrogenase to determine cell growth conditions. In live cells, dehydrogenase in active mitochondria converts yellow MTT [3-(4,5-dimethylthiazol-2-yl)-2,5-diphenyltetra zolium bromide] into purple formazan on the reductive cleavage of its tetrazolium ring. The formazan crystal is examined under the microscope. While the mitochondria in dead cells are without active dehydrogenase, no crystal is generated and the color remains yellow. After adding MTT into cell cultures and reacting for 2 hours, the amount of generated formazan precipitate is proportional to total amount of dehydrogenase. Removing the culture medium, add DMSO to dissolve the purple formazan precipitate. Then measure the absorbance of the precipitate by is measured by the spectrophotometer at 560/670 nm so as to learn inhibition effect of drugs acted on normal cells and tumor cells.
(§2) GBM 8401, GBM 8901 (human brain glioblastoma) and SVG p12 (human brain astroglia)cells line are selected to be used in 96 well petri dishes. Each well is filled into the same amount of cells-about 5000 cells per well. After being cultured for 24 hours and cells anchor/attach, the 96 wells are divided into two groups-an experimental group and a control group containing no samples. The samples are diluted into 10 μg/mL by culture medium. Take 200 μL of each sample and add into the experimental group and the control group is added with 200 μL culture medium without samples. After 46 hours of culture, each well is added with 10 μL MTT solution, incubate cells at 37° C., 5% CO2 for 2 hours.
(§3) Then each well is added with 100 μL, dissolving formazan. Shaking for 10 minutes and measure the absorbance at 560/670 nm of the sample by the spectrometer. The data of the experimental group is divided by the data of the control group to get the estimated cell viability.
(§4) Three cell lines-GBM 8401, GBM 8901, SVG p12 (normal) are used in cytotoxicity tests of 1,8-bis-substituted amidoanthraquinone. After reacting with the drug for 46 hours, the cells are reacted with certain amount of MTT solution. After 2 hours, DMSO is used to dissolve formazan and O.D. (optical density) at 560/670 nm is measured. Then calculate the radios of the experimental groups (with drugs) to the control groups (without drugs).

[2] = tested on: SVG p12 (human brain astroglia) cells; experiment: MTT colorimetric assay, normal SVG p12 cells; details: conc. 10 μM, 46 hours with drug, then 2 hours MTT, ratio to control group without drug
Text: as §1, §2, §3, §4

[3] = tested on: GBM 8401 (human brain glioblastoma) cells; experiment: MTT colorimetric assay, GBM 8401 cells; details: conc. 10 μM; 46 hours with drug, then 2 hours MTT; ratio to control group without drug
Text: as §1, §2, §3, §4

SMILES | Cell viability (%) GBM 8901 ([1]; conc. 10 μM) [%] | Cell viability (%) SVG p12 [2] [%] | Cell viability (%) GBM 8401 [3] [%] | viability at 10 µM ([1]; Homo sapiens, read-out: Cell viability (%) GBM 8901, conc. 10 μM) [%]
COC(=O)[C@H](NCC(=O)Nc1cccc2c1C(=O)c1c(NC(=O)CN[C@@H](C(=O)OC)C(C)C)cccc1C2=O)C(C)C [Compound 3e, (D)-1,8-Bis[2-(valinemethyl ester)acetamido]anthraquinone] | 88 ± 10 | 138 ± 10 | 153 ± 32 | 
COC(=O)[C@H](C)NCC(=O)Nc1cccc2c1C(=O)c1c(NC(=O)CN[C@H](C)C(=O)OC)cccc1C2=O [Compound 3h, (L)-1,8-Bis[2-(alalinemethyl ester)acetamido]anthraquinone] |  | 128 ± 34 | 158 ± 3 | 100 ± 24
